Here are results for 15 compounds from patent publication US4308273A, “1,6-Naphthyridine derivatives, and antidinic and cerebral circulation improver containing such derivatives” (Nippon Kayaku Kabushiki Kaisha, priority 1978, dated 1981).

Series [1] in a line: Inhibition of spontaneous nystagmus produced by unilateral destruction of the labyrinth (anti-vertigo action). The class given is in vivo. Particulars: cats, 12 mg/kg injected intravenously; for inhibition at 12 mg/kg: Felis catus, iv, read-out: Effect of compounds on the nystagmus expressed as inhibitory percentage. How it is done: (1) It is well known that vertigo resulting from the disturbance of the peripheral labyrinth is accompanied by nystagmus. So, we acutely produced the spontaneous nystagmus by unilateral destruction of the labyrinth in cats and used it as an experimental model of vertigo. a pair of Ag--AgCl cup electrodes was placed laterally to both orbits and an indifferent electrode on the forehead. The nystagmus was recorded through an amplifier. The inhibitory effect of the compounds on the nystagmus was expressed by [formula] where A is the frequency of the nystagmus in ten seconds before administration of the compounds and B is the frequency of the nystagmus at the maximum inhibitory point after administration. The duration of the effect was also measured. Compounds dissolved in saline were injected into the femoral vein. Betahistine and diphenidol were used as standard drugs.
A: Doses of compounds injected intraveneously.
B: Effect of compounds on the nystagmus expressed as inhibitory
C: Duration of the effect of compounds

The nature of series [2]: Acute toxicity (LD50) by intraperitoneal injection. Particulars: mouse, in vivo, ip. As to the method: LD50 values of the compounds by intraperitoneal injection in mice were determined.
Series [3] can be described thus: Cerebral vasodilating action: vertebral arterial flow, intra-arterial injection. Particulars: Canis lupus familiaris; dogs, 1 mg intraarterially; read-out: Percent increase in vertebral arterial flow when injected intraarterially. The class given is in vivo. How it is done: A: Percent increase in vertebral arterial flow when injected
intraarterially (1 mg) to dogs.
(1) For the experimental evaluation of cerebral vasodilating action, the canine vertebral arterial preparation was used. The carotid arterial blood was led to the vertebral artery by a short extracorporeal loop. The vertebral arterial flow was measured by an electromagnetic flow transducer inserted in the circuit. The action of the compounds on the vertebral arterial flow was expressed by percent increase when 1 mg of each compound was injected intra-arterially.

Series [4] is described as follows: Effects of intravenous injection on mean arterial pressure, heart rate and vertebral arterial flow in anesthetized dogs. Particulars: for change in vivo at 1 mg/kg: Canis lupus familiaris, iv, read-out: Percent increase in vertebral arterial flow when injected intravenously; for Changes in heart rate when injected intravenously / Changes in systemic blood pressure when injected intravenously: anesthetized dogs, 1 mg/kg intravenously.
Protocol: Pressure in the carotid artery was measured by a pressure transducer and mean arterial pressure was obtained by electrical integration. Heart rate was obtained by a cardiotachometer, triggered by a signal from the pressure pulse. The vertebral arterial flow was measured by fitting an electromagnetic flow transducer. The action on systemic mean arterial pressure, heart rate and vertebral arterial flow were represented by Δ mmHg, Δ beats/min and percent increase.

The mark [5] stands for this setting: male mice, intraperitoneal injection (Table 3).
[6] abbreviates: mice, intraperitoneal injection (Table 4).

Broadly, the LD50 is the dose at which mortality reaches 50%. A lower LD50 goes with a more toxic substance. `CCCCCN1CCc2ncccc2C1` [Compound 6, 5,6,7,8-tetrahydro-6-n-amyl-1,6-naphthyridine]: in series [1], the inhibition at 12 mg/kg came to 86% and the “Duration of the effect of compounds (nystagmus)” value (shortened to “Duration”) was 10 min. In series [2] (setting [5]), the LD50 stood at 165 mg/kg.

As to `CC(C)CCN1CCc2ncccc2C1` [Compound 7], in series [1], the inhibition at 12 mg/kg was found to be 85% and the “Duration” value is 6 min. The compound further gave a 50% lethal dose (LD50) in series [2] (setting [5]) of 219 mg/kg.

Consider `CCCCCCCCCCN1CCc2ncccc2C1` [Compound 11], for which the LD50 in series [2] (setting [6]) was determined as 156 mg/kg. Further, the change in vivo at 1 mg in series [3] amounted to 99%. Further, in series [4], the change in vivo at 1 mg/kg is 25%, the “Changes in heart rate when injected intravenously” value (“Changes in heart rate” below) was “+8 Δ beats/min” and the “Changes in systemic blood pressure when injected intravenously” value (from here on “Changes in systemic blood pressure”) is recorded as -5.0 Δ mmHg.

For the compound `C=CCCN1CCc2ncccc2C1` [Compound 14, 5,6,7,8-tetrahydro-6-(3-butenyl)-1,6-naphthyridine], in series [1], the inhibition at 12 mg/kg worked out at 77% and the “Duration” value came to 28 min. The compound also yielded an LD50 in series [2] (setting [5]) of 239 mg/kg.

As to `CCCCCC=CCN1CCc2ncccc2C1` [Compound 19], in series [1], the inhibition at 12 mg/kg came to 65% and the “Duration” value amounted to 25 min. The compound also gave an LD50 in series [2] (setting [5]) of 304 mg/kg.

The compound `CC(C)=CCC/C(C)=C/CN1CCc2ncccc2C1` [Compound 20] registered an LD50 in series [2] (setting [6]) of 292 mg/kg. The change in vivo at 1 mg in series [3] amounted to 69%. In series [4], the change in vivo at 1 mg/kg was determined as 20%, the “Changes in heart rate” value is “+12 Δ beats/min” and the “Changes in systemic blood pressure” value is recorded as -11.7 Δ mmHg.

Turning to `c1cnc2c(c1)CN(CC1CCC1)CC2` [Compound 23], in series [1], the inhibition at 12 mg/kg amounted to 83% and the “Duration” value is on record as 8 min. The compound further came in with a median lethal dose (LD50) in series [2] (setting [5]) of 214 mg/kg.

Regarding `c1ccc(OCCCN2CCc3ncccc3C2)cc1` [Compound 27], in series [1], the inhibition at 12 mg/kg is 90% and the “Duration” value is reported as 30 min. This compound also showed a 50% lethal dose (LD50) in series [2] (setting [5]) of 208 mg/kg.

On to `Clc1ccc(CN2CCc3ncccc3C2)cc1` [Compound 33], for which the change in vivo at 1 mg in series [3] amounted to 75%. Moreover, in series [4], the change in vivo at 1 mg/kg was determined as 30%, the “Changes in heart rate” value is given as “+8 Δ beats/min” and the “Changes in systemic blood pressure” value is -23.5 Δ mmHg.

As to `CCc1ccc(CN2CCc3ncccc3C2)cc1` [Compound 35], the change in vivo at 1 mg in series [3] stood at 56%. For the same compound, in series [4], the change in vivo at 1 mg/kg is 27.3%, the “Changes in heart rate” value is recorded as “+8 Δ beats/min” and the “Changes in systemic blood pressure” value was -21.7 Δ mmHg.

For the compound `CC(C)(C)c1ccc(CN2CCc3ncccc3C2)cc1` [Compound 38], the change in vivo at 1 mg in series [3] came out at 78%. Besides, in series [4], the change in vivo at 1 mg/kg was determined as 28.6% and the “Changes in systemic blood pressure” value is -11.7 Δ mmHg.

As for `c1ccc(CCN2CCc3ncccc3C2)cc1` [Compound 55], in series [1], the inhibition at 12 mg/kg was 92% and the “Duration” value was determined as 5 min. In series [2] (setting [5]), the LD50 was 219 mg/kg.

As to `c1ccc(CCCN2CCc3ncccc3C2)cc1` [Compound 57], in series [1], the inhibition at 12 mg/kg came to 97% and the “Duration” value was determined as 10 min. In series [2] (setting [5]), this compound returned an LD50 of 159 mg/kg.

Consider `Clc1ccccc1C=CCN1CCc2ncccc2C1` [Compound 61], for which the change in vivo at 1 mg in series [3] came out at 84%. Also, in series [4], the change in vivo at 1 mg/kg amounted to 29.2%, the “Changes in heart rate” value is “+24 Δ beats/min” and the “Changes in systemic blood pressure” value is listed as -20.0 Δ mmHg.

On to `O=[N+]([O-])c1ccccc1C=CCN1CCc2ncccc2C1` [Compound 67], for which the change in vivo at 1 mg in series [3] turned out to be 75%. Also, in series [4], the change in vivo at 1 mg/kg is 40%, the “Changes in heart rate” value was “+16 Δ beats/min” and the “Changes in systemic blood pressure” value is recorded as -31.7 Δ mmHg.
